# Measurements: PMC8708390, “Fatty Acid Modification of the Anticancer Peptide LVTX-9 to Enhance Its Cytotoxicity against Malignant Melanoma Cells” (Toxins, 2021)
# Where no end group is shown, it is not given here.
# Assays:
# [1] = system: B16-F10 cells; assay: LDH leakage assay; format: cell-based, mouse; details: 25 μM, 24 h, absorbance 490 nm, n = 3
# Method: At first, the B16-F10 cells were cultured in 96-well plates for 24 h at approximately 2 × 10^3 cells/well. Subsequently, the cells were treated for 24 h with LVTX-9 or LVTX-9-C18 with a series of concentration gradients. LDH leakage detection was detected using an LDH Cytotoxicity Assay Kit according to the manufacturer’s instructions (Beyotime, Shanghai, China. C0017). The absorption was measured using an Absorbance Microplate Reader (BioTek Instruments) at 490 nm. The LDH release (%) of peptides was calculated by GraphPad prism 5.0.
# [2] = system: erythrocytes; assay: Hemolytic activity; format: cell-based; details: 1% RBC in PBS, 30 min at 37 °C, absorbance 450 nm, 0.1% Triton-X 100 positive control
# Method: The hemolytic activity levels of LVTX-9 and LVTX-9-C18 were confirmed as follows. Red blood cells (RBC) were washed with sterile PBS and centrifuged for 5 min at 1000 rpm. The supernatant was removed, and cells were resuspended in PBS at a final concentration of 1% (5 × 10^6/mL). The diluted RBC suspension (50 µL) was mixed with PBS (negative control), 0.1% Triton-X 100 (positive control), and LVTX-9 or LVTX-9-C18 with various concentrations at a 1:1 ratio. The mixtures were incubated for 30 min at 37 °C, then centrifuged for 5 min at 12,000 rpm. The supernatant (90 µL) was added to a new 96-well plate to measure the absorbance at 450 nm using a microplate reader, and we produced hemolytic activity curves by GraphPad prism 5.0.
# [3] = system: B16-F10 cells; assay: Colony formation assay; format: cell-based, mouse; details: 10 μM, 7 days, crystal violet, mean ± SD, n = 3, control group 51 ± 12.0
# Method: To detect the proliferation of B16-F10 cells treated with LVTX-9 and LVTX-9-C18 at low concentrations, digested cells were counted using a Cellometer K2 and seeded into a 12-well plate with approximately 100 cells per well. After 36 h, cells were treated with LVTX-9 (10 μM) and LVTX-9-C18 (1 μM), then incubated for 7 days at 37 °C in a humidified 5% CO2 atmosphere. Visible colonies were stained with 0.5% crystal violet and photographically recorded. The colony formation rates were calculated, and curves were manufactured by GraphPad prism 5.0.
# [4] = system: B16-F10 cells; assay: Scanning electron microscopy of cell membrane; format: cell-based, mouse; details: 50 μM, 24 h
# Method: The morphologic changes of the cell membrane of B16-F10 cells treated with peptides were observed by SEM [14]. The cells were seeded on coverslips and placed into a six-well plate, then treated with LVTX-9 (50 μM) and LVTX-9-C18 (5 μM) for 24 h. After incubation, the B16-F10 cells were washed with sterile PBS gently three times and fixed with 2 mL of 2.5% glutaraldehyde solution in each well for 4 h at room temperature. Then, the fixed cells were dehydrated with a series of ethanol concentrations. We dried the samples with a Critical Point Dryer and coated them with gold plating before observation. A scanning electron microscope (Hitachi Su8010, Tokyo, Japan) was used to examine the prepared samples.
# [5] = Dynamic light scattering (hydrodynamic size, PDI, zeta potential); format: physicochemical; details: 100 µM in ultrapure water, 25 °C, repeated three times
# Method: Dynamic light scattering (DLS) of Zetasizer Nano ZSP (Malvern Instruments, Malvern, UK) apparatus was used to determine the hydrodynamic size and zeta potential of LVTX-9 and LVTX-9-C18. The peptides concentrations were diluted to 100 µM with ultrapure water with a final volume of 1 mL. The procedure ran at 25 °C, with each experiment repeated three times. The secondary structures of LVTX-9 and LVTX-9-C18 were determined to be in line with the previous protocol. The peptide concentrations were then diluted to 100 µM with ultrapure water and 100 mM of SDS was added in a final volume of 250 μL. The procedure was carried out at 25 °C. CD spectra were recorded between 180 nm and 280 nm on a Jasco J-815 CD spectrometer.
# [6] = RP-HPLC retention time as measure of hydrophobicity; format: physicochemical; details: chromatographic, Vydac C18 300 Å 4.6 × 250 mm, 1.0 mL/min, gradient 30-100% acetonitrile/0.1% TFA, 215 nm, column 25 ± 5 °C; maximum height of peak
# Method: Peptides were synthesized using the Fmoc SPPS methods. Briefly, the peptide LVTX-9 (AC-[…]-amide) was prepared on Rink Amide AM resin at a 0.2 mmol scale. A 4-fold excess of the Fmoc-protected amino acids was coupled with the Rink Amide AM resin using HCTU and HOBT as the activating agents in 5% NMM/DMF. After the synthesis of LVTX-9, the N-terminal Fmoc group was removed using 20% piperidine. As in the previous steps, a series of fatty acids (C12-C20) was activated in HCTU and HOBT using 5% NMM/DMF, and coupled to peptidyl resin for 2 h. Peptides were cleaved using trifluoroacetic acid (TFA)/thioanisole (TIS)/anisole (95:3:2 (v/v)) for 2.5 h, and the collected lysate was precipitated in cold diethyl ether three times. The precipitate was air-dried naturally. Next, the obtained crude products were purified using RP-HPLC (C18, 4.6 mm × 250 mm) on the basis of a 0.1% TFA/acetonitrile gradient from 30% to 100% in 46 min. Then, we collected the eluted peptides and determined the molecular mass using MALDI-TOF MS (AB, SCIEX, Waltham, MA, USA).
# Figure 2 Purification and identification of five lipopeptides using RP-HPLC and MALDL-TOF MS: The purification of (A) LVTX-9-C12, (B) LVTX-9-C14, (C) LVTX-9-C16, (D) LVTX-9-C18, and (E) LVTX-9-C20 was performed using RP-HPLC (column, Vydac, C18, 300 Å, 4.6 × 250 mm). The lipopeptides were separated at a flow rate of 1.0 mL/min under a gradient of 30–100% acetonitrile/0.1% TFA. The elution of lipopeptides was monitored at 215 nm. Identification of (F) LVTX-9-C12, (G) LVTX-9-C14, (H) LVTX-9-C16, (I) LVTX-9-C18, and (J) LVTX-9-C20 by MALDI-TOF MS, respectively. The red star (*) represents the target peak. […]
# Table S1. Purification gradient of peptides.
# Time (min) Flow Rate (mL/min) A% B%
# Wavelength: 215 nm/280 nm, column temperature: 25 ± 5 ℃, A: ddH2O (0.1% TFA), B: acetonitrile
# (1 picture or pasted object on this page, not shown here)
substance,measurement,setting,value
ASIGALIQKAIALIKAKAA-NH2 (C-terminus assumed) [LVTX-9],LDH release at 25 μM,[1],~ 2%
same,hemolytic activity at 200 μM,[2],almost no hemolytic activity
same,colony number at 10 μM,[3],58 ± 11.4
same,cell membrane morphology by SEM at 50 μM,[4],intact membranes with smooth surfaces
same,"PDI (hydrodynamic size, DLS)",[5],0.65 ± 0.0481
same,"TR (retention time, RP-HPLC; indicates the hydrophobicity of the peptides)",[6],15.21 min
